Assay results as given in the supplement of paper PMC13380429.

Columns and labels:
Settings in all cases: 72 h
[1] = system: HepG2; experiment: drug sensitivity score (DSS) for viability; higher = more toxic; extreme values may be limits of the assay
[2] = system: Vero E6; experiment: as above
[3] = system: Caco-2; experiment: as above
[4] = system: Calu-3; experiment: as above
[5] = system: U2OS; experiment: as above
[6] = system: HepG2; experiment: cell viability relative to DMSO; higher = less toxic
[7] = system: Vero E6; experiment: as above
[8] = system: Caco-2; experiment: as above
[9] = system: Calu-3; experiment: as above
[10] = system: U2OS; experiment: as above
[11] = system: HepG2; experiment: relative viability EC50 (midpoint between 100% and the lowest measured viability); higher = less toxic
[12] = system: Vero E6; experiment: as above
[13] = system: Caco-2; experiment: as above
[14] = system: Calu-3; experiment: as above
[15] = system: U2OS; experiment: as above

Row | SMILES | drug sensitivity score [1] | drug sensitivity score [2] | drug sensitivity score [3] | drug sensitivity score [4] | drug sensitivity score [5] | cell viability ([6]; 1 nM) | cell viability ([6]; 10 nM) | cell viability ([6]; 100 nM) | cell viability ([6]; 1000 nM) | cell viability ([6]; 10000 nM) | cell viability ([7]; 1 nM) | cell viability ([7]; 10 nM) | cell viability ([7]; 100 nM) | cell viability ([7]; 1000 nM) | cell viability ([7]; 10000 nM) | cell viability ([8]; 1 nM) | cell viability ([8]; 10 nM) | cell viability ([8]; 100 nM) | cell viability ([8]; 1000 nM) | cell viability ([8]; 10000 nM) | cell viability ([9]; 1 nM) | cell viability ([9]; 10 nM) | cell viability ([9]; 100 nM) | cell viability ([9]; 1000 nM) | cell viability ([9]; 10000 nM) | cell viability ([10]; 1 nM) | cell viability ([10]; 10 nM) | cell viability ([10]; 100 nM) | cell viability ([10]; 1000 nM) | cell viability ([10]; 10000 nM) | relative viability EC50 [11] | relative viability EC50 [12] | relative viability EC50 [13] | relative viability EC50 [14] | relative viability EC50 [15]
1 | NCC1CC(=O)N(Cc2ccccc2)C1 (stereo not given) [nebracetam] | 0 | 0 | 0 | 0 | 0 | 109% | 108% | 92.8% | 96.6% | 98.5% | 94.5% | 93.6% | 97.8% | 91.4% | 108% | 87% | 91.8% | 84.4% | 97.8% | 99.7% | 99.7% | 96.3% | 93.1% | 94.4% | 107% | 97.4% | 104% | 95.7% | 100% | 104% | > 10 µM | > 10 µM | > 10 µM | > 10 µM | > 10 µM
2 | O=C(c1ccc(Cl)cc1)N(Cc1ccccc1)C1CCCCC1 [FPS-ZM1] | 0 | 0 | 0 | 0 | 0 | 106% | 106% | 102% | 92.9% | 93.8% | 97.6% | 97.7% | 99.3% | 101% | 90.8% | 101% | 91.6% | 93.3% | 102% | 89.4% | 105% | 96.3% | 102% | 99.3% | 89.7% | 98% | 98.6% | 97.4% | 100% | 96.2% | > 10 µM | > 10 µM | > 10 µM | > 10 µM | > 10 µM
3 | CS(=O)(=O)OCCCCOS(C)(=O)=O [busulfan] | 1.2 | 1.3 | 0.2 | 0 | 0 | 107% | 92.9% | 112% | 95.8% | 79.2% | 94.9% | 94.8% | 99.6% | 86.2% | 84.5% | 109% | 93.4% | 92.1% | 84.1% | 96.5% | 101% | 104% | 89.7% | 99.6% | 106% | 102% | 95.9% | 105% | 98.4% | 100% | > 10 µM | > 10 µM | > 10 µM | > 10 µM | > 10 µM
4 | O=C(CCCCCN1C(=O)c2cccc3cccc(c23)C1=O)NO [scriptaid] | 8.8 | 9.3 | 8.6 | 8 | 9.4 | 108% | 109% | 93% | 78.2% | 2.9% | 107% | 106% | 103% | 75.3% | 0.1% | 107% | 90.8% | 97.6% | 80% | 2.4% | 101% | 102% | 102% | 73.7% | 23.4% | 102% | 98.6% | 96.8% | 72.7% | 3.1% | 1.64 µM | 1.56 µM | 1.72 µM | 1.3 µM | 1.45 µM
5 | Cn1cc(C(=O)OCC2CCN(CCNS(C)(=O)=O)CC2)c2ccccc21 | 0 | 0 | 0 | 0 | 0 | 96.1% | 96.3% | 93.9% | 93.3% | 91.3% | 101% | 96.8% | 100% | 95.1% | 96.5% | 99% | 95.8% | 85.9% | 93.3% | 96.8% | 86% | 109% | 100% | 103% | 108% | 99.7% | 101% | 96.8% | 98.8% | 95.3% | > 10 µM | > 10 µM | > 10 µM | > 10 µM | > 10 µM
6 | CN1CCN(CC(=O)N2c3ccccc3C(=O)Nc3cccnc32)CC1 [pirenzepine] | 0 | 0 | 0 | 0 | 0 | 113% | 99.9% | 88.9% | 103% | 97.7% | 103% | 101% | 98.4% | 103% | 102% | 85.5% | 103% | 99.9% | 93.9% | 95% | 97.5% | 87.3% | 104% | 96.3% | 103% | 96.1% | 93.8% | 99.6% | 98.7% | 101% | > 10 µM | > 10 µM | > 10 µM | > 10 µM | > 10 µM
7 | C[Se]C[C@H](N)C(=O)O [Se-methylselenocysteine] | 0 | 0 | 0 | 0 | 0 | 101% | 101% | 104% | 93% | 108% | 104% | 100% | 99.2% | 102% | 101% | 94.3% | 99.1% | 97.2% | 102% | 91.4% | 108% | 113% | 98.1% | 109% | 96.4% | 92.4% | 102% | 95.5% | 99.7% | 97.7% | > 10 µM | > 10 µM | > 10 µM | > 10 µM | > 10 µM
8 | Clc1ccccc1C(c1ccccc1)(c1ccccc1)n1cccn1 [TRAM-34] | 0 | 0 | 0 | 0 | 0 | 107% | 96.5% | 93.5% | 98.4% | 104% | 104% | 111% | 97.6% | 104% | 98.9% | 95.8% | 89% | 99% | 99% | 90.1% | 104% | 104% | 106% | 93.4% | 103% | 97.6% | 98.4% | 101% | 99.2% | 99% | > 10 µM | > 10 µM | > 10 µM | > 10 µM | > 10 µM
9 | O=C(Oc1ccc([N+](=O)[O-])cc1)N1CCC(C(O)(c2ccc3c(c2)OCO3)c2ccc3c(c2)OCO3)CC1 [JZL-184] | 0 | 0 | 0 | 0 | 0 | 109% | 114% | 90.5% | 116% | 97.9% | 106% | 97.2% | 91.9% | 96.4% | 91% | 104% | 98.5% | 100% | 91.5% | 104% | 105% | 115% | 100% | 91.2% | 117% | 94.9% | 100% | 98% | 96.2% | 97.9% | > 10 µM | > 10 µM | > 10 µM | > 10 µM | > 10 µM
10 | CC(C)(CC(=O)N1CCCC1)NCC(=O)N1C[C@@H](F)C[C@H]1C#N [DBPR108] | 0 | 0 | 0 | 0 | 0 | 96.2% | 102% | 94.6% | 104% | 105% | 99.6% | 99.9% | 104% | 92.2% | 102% | 91.1% | 93.5% | 86.4% | 95.6% | 95% | 107% | 97.5% | 100% | 98.9% | 95% | 97.9% | 98.1% | 99.1% | 100% | 92.9% | > 10 µM | > 10 µM | > 10 µM | > 10 µM | > 10 µM
11 | Cc1cc2ncc(C(=O)NCC(C)(C)NCC(=O)N3CCC[C@H]3C#N)cn2n1 [anagliptin] | 0 | 0 | 0 | 0 | 0 | 102% | 94.2% | 102% | 104% | 97.9% | 99.2% | 99.5% | 102% | 98.8% | 106% | 103% | 93.3% | 94.6% | 97.8% | 100% | 97.3% | 102% | 94.9% | 94.6% | 98.8% | 99.9% | 101% | 96.2% | 104% | 98.5% | > 10 µM | > 10 µM | > 10 µM | > 10 µM | > 10 µM
12 | COc1ccc(OC)c2c(=S)c3ccccc3[nH]c12 | 1 | 0 | 0 | 0 | 0 | 88.8% | 96.3% | 94% | 98.9% | 76.6% | 99.4% | 104% | 102% | 97.2% | 96.2% | 112% | 96.7% | 99.5% | 102% | 88.6% | 105% | 100% | 99.4% | 108% | 106% | 102% | 98.3% | 102% | 99.7% | 103% | > 10 µM | > 10 µM | > 10 µM | > 10 µM | > 10 µM
13 | CC(C)(C)C(=O)Oc1ccc(S(=O)(=O)Nc2ccccc2C(=O)NCC(=O)O)cc1 [sivelestat] | 0 | 0 | 0 | 0 | 0 | 101% | 92.6% | 103% | 90% | 98.3% | 107% | 96.5% | 104% | 98.8% | 100% | 91% | 97% | 94.1% | 93.5% | 91.3% | 97.2% | 96.1% | 90.5% | 103% | 109% | 98.5% | 100% | 96.2% | 101% | 96.5% | > 10 µM | > 10 µM | > 10 µM | > 10 µM | > 10 µM
14 | CC(=N)NCc1cccc(CN)c1 [1400W] | 0 | 0 | 0 | 0 | 0 | 102% | 100% | 105% | 94.4% | 97% | 103% | 98.3% | 99.9% | 102% | 97.7% | 112% | 92.6% | 103% | 92.2% | 103% | 102% | 93% | 91.2% | 108% | 109% | 103% | 94.6% | 104% | 98% | 104% | > 10 µM | > 10 µM | > 10 µM | > 10 µM | > 10 µM
